SMILES strings stand for the structures.

One may read the EC50 as the concentration needed to bring the measured effect to its halfway point. Read a high EC50 as a less potent agent.

The target of this experiment is T1, human GPR40 (Homo sapiens, UniProt O14842).
T1 construct: expressed in transfected cells; host or cells: HEK cells stably expressing the aequorin reporter
Briefly: Inositol Phosphate Turnover (IP1) Assay 2. Type of experiment: cell-based. The note with it: HEK cells stably expressing human GPR40; compound acoustically transferred; 60 minutes at 37 degrees. On the procedure:
Human and mouse GPR40 stable cell-lines were generated in CHO cells stably expressing NFAT BLA (Beta-lactamase). A human GPR40 stable cell-line was generated in HEK cells stably expressing the aequorin expressing reporter. The expression plasmids were transfected using lipofectamine (Life Technologies) following manufacturer's instructions. Stable cell-lines were generated following drug selection.
The assay is performed in 384-well format. HEK cells stably expressing human GPR40 are plated at 15,000 cells per well in growth medium (DMEM/10% fetal calf serum). Cell plates are then incubated 16 hours at 37 degrees in a 5% CO2 incubator.
Measurement of Inositol Phosphate Turnover (IP1) is performed using the CisBio IP-One kit (Part number 62IPAPEB). After the 16 hour incubation, the cells are washed with HEPES buffer and 10 ul of stimulation buffer (prepared as described in the kit) is added to each well. In a separate plate, compounds are diluted in DMSO (400-fold over the final concentration in the assay well) and 25 nl is acoustically transferred to the appropriate well in the assay cell plate. The plates were then incubated for 60 minutes at 37 degrees. 10 ul of detection buffer (also prepared as described in the IP-One kit) is added to each well and the plates are incubated for 60 minutes in the dark. The plates are then read in a Perkin Elmer EnVision or equivalent reader able to measure FRET. Fluorescent ratio of emission at 665 and 620 nm is then converted to IP1 concentration by back calculating from an IP1 standard curve prepared at the time of the assay.

T1 sequence (O14842 whole entry): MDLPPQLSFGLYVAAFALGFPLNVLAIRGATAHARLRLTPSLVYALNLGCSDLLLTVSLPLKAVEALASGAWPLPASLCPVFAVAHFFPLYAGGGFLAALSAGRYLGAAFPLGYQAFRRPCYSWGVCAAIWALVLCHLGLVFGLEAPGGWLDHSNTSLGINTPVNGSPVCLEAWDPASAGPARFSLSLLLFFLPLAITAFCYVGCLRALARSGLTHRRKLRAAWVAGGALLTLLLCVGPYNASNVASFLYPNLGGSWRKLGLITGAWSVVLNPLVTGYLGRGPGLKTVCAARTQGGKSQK

Turning to `COc1cc(-c2ccc(C3CCc4ccc(C(C5CC5)C(C)C(=O)O)cc4C3)c(F)c2)ccn1` (single isomer, unassigned) [Example 37], the response was half-maximal at 0.42 nM (EC50).

Turning to `COc1ccc(F)c(-c2ccc([C@@H]3Cc4cc([C@H](C5CC5)[C@H](C)C(=O)O)ccc4CO3)cc2)c1` [Example 21, (2S,3R)-3-cyclopropyl-3-((S)-3-(2′-fluoro-5′-methoxy-[1,1′-biphenyl]-4-yl)isochroman-6-yl)-2-methylpropanoic acid], the EC50 was determined as 0.21 nM.

In turn, `COc1cc(-c2ccc(C3=Cc4cc([C@@H](C5CC5)[C@H](C)C(=O)O)ccc4CC3)c(F)c2)ccn1` (single isomer, unassigned) [Example 29] yielded an EC50 of 3960 nM.

With `COc1cc(-c2ccc(C3CCc4ccc(C(C5CC5)C(C)C(=O)O)cc4C3)c(F)c2)ccn1` (single isomer, unassigned) [Example 35], the concentration for a half-maximal effect (EC50) amounted to 257 nM.

For `COc1cc(-c2ccc(C3=Cc4cc([C@H](C5CC5)[C@H](C)C(=O)O)ccc4CC3)c(F)c2)ccn1` (single isomer, unassigned) [Example 31], the response was half-maximal at 0.5 nM (EC50).

Regarding `COc1cc(-c2ccc(C3CCc4ccc(C(C5CC5)C(C)C(=O)O)cc4C3)c(F)c2)ccn1` (single isomer, unassigned) [Example 34], the EC50 worked out at 13 nM.

For `COc1cc(-c2ccc(C3COc4ccc([C@H](C5CC5)[C@H](C)C(=O)O)cc4C3)c(F)c2)ccn1` (single isomer, unassigned) [Example 17], the EC50 was determined as 15 nM.

As to `COc1cc(-c2ccc(C3Cc4cc([C@H](C5CC5)[C@H](C)C(=O)O)ccc4CO3)cc2)c(F)cn1` (single isomer, unassigned) [Example 39B], the response was half-maximal at 5.2 nM (EC50).

For the origin of these results see patent publication US10662171B2, “Antidiabetic bicyclic compounds” (Merck Sharp & Dohme Corp., priority 2014, dated 2020).
